In ChEMBL document CHEMBL1124610, “Tyrphostins I: synthesis and biological activity of protein tyrosine kinase inhibitors” (J Med Chem, 1989) one finds IC50 and Ki data, which are given here for 65 molecules.

Where only a bound is given, the exact number is not on record here.

One may read the IC50 as the concentration that gives 50% inhibition. Higher therefore signals weaker potency.

The target in one test is T1, Epidermal growth factor receptor (Homo sapiens, UniProt P00533). Nature of the test: Inhibition of EGF-dependent epidermal growth factor receptor autophosphorylation (inactive).
T1 sequence (P00533 whole entry): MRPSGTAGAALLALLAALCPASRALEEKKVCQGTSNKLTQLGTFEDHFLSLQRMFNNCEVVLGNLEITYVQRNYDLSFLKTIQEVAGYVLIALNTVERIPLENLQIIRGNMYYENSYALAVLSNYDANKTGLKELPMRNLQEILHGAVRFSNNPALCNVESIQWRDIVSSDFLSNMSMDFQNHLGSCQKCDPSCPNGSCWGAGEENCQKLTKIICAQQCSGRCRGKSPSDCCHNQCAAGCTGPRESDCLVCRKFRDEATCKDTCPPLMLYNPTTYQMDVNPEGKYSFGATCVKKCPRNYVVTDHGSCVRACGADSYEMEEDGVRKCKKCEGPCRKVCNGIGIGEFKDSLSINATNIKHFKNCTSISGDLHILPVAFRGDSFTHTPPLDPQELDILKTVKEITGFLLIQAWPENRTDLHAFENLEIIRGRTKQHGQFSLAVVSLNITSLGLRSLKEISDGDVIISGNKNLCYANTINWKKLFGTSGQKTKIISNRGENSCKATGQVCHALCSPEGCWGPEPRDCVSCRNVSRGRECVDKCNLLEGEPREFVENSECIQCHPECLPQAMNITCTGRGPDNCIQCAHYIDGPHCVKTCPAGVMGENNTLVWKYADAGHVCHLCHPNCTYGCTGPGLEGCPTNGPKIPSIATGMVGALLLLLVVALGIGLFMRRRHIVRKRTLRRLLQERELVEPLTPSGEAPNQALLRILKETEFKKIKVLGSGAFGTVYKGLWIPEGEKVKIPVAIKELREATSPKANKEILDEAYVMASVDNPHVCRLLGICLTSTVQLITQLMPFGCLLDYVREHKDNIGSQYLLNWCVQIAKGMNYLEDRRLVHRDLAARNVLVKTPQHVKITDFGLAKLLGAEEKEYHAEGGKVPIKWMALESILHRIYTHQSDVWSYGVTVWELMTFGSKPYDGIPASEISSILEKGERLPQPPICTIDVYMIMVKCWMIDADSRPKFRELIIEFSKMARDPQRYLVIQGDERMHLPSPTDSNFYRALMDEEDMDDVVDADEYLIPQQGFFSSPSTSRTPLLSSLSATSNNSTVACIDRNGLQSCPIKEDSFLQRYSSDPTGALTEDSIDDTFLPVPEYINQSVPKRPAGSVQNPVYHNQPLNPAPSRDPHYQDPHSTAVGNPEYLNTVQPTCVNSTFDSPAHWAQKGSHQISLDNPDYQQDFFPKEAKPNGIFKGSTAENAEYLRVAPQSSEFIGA
Consider `O=C(O)c1ccc(O)cc1` [PARABEN], for which the IC50 entry is “Not Active” and the Ki result is on record as “Not Active”.
For the molecule `O=[N+]([O-])c1ccc(O)c(O)c1` [4-Nitrocatechol], the concentration for half-maximal inhibition (IC50) result is listed as “Not Active” and the Ki result is “Not Active”.

The target in a further test is T1, Epidermal growth factor receptor. Nature of the test: (§1) Inhibitory concentration of EGF dependent autophosphorylation of epidermal growth factor receptor kinase.
Molecule `N#C/C(=C\c1ccc(C=O)cc1)C(=O)O` gave a half-maximal inhibitory concentration (IC50) of 140 µM.
Still for that read-out and setting: in the case of `N#C/C(=C\c1ccccc1)C(=O)O` it was above 2500 µM; in that of `COc1cc(/C=C(\C#N)C(=O)O)ccc1O`, 800 µM.
In the case of `Cc1ccc(/C=C(\C#N)C(=O)O)cc1`, the half-inhibitory concentration (IC50) is 1350 µM.
For `N#C/C(=C\c1ccc(O)c(O)c1)C(=O)O`, the 50% inhibitory concentration (IC50) came to 70 µM.
The same measure, in the same setting: in the case of `COc1ccc(/C=C(\C#N)C(=O)O)cc1` it was 2500 µM.
The same measure, in the same setting: in the case of `N#C/C(=C\c1ccc(O)cc1)C(=O)O` [alpha-CYANO-4-HYDROXYCINNAMIC ACID] it was 308 µM; in that of `N#C/C(=C\c1ccc(F)cc1)C(=O)O`, 2500 µM; in that of `COc1cc(/C=C(\C#N)C(=O)O)cc(OC)c1O`, 700 µM.
The same measure, in the same setting: in the case of `CN(C)c1ccc(/C=C(\C#N)C(=O)O)cc1` it was 1400 µM.

For a further test the target is unchanged. Described as §1.
Consider `N#CC(C#N)=C(N)/C(C#N)=C/c1cc(O)c(O)c(Br)c1`, for which the midpoint of inhibition, the IC50, lay at 0.5 µM.
The same measure, in the same setting: in the case of `COc1cc(C=C(C#N)C#N)ccc1O` it was 200 µM.
`N#C/C(=C/c1ccc[nH]1)C(=O)O` yielded a concentration for half-maximal inhibition (IC50) of 1360 µM.
`N#CC(C#N)=NNc1ccc(O)cc1` displayed an IC50 of 225 µM.
In turn, `COc1cc(/C(C)=C(\C#N)C(=O)O)ccc1O` displayed a concentration for half-maximal inhibition (IC50) of 1100 µM.
On the same count and under the same terms, in the case of `N#C/C(=C\c1ccc(C=O)cc1)C(=O)O` it was 140 µM.
`N#CC(C#N)=C(O)c1ccc(O)cc1` registered a half-maximal inhibitory concentration (IC50) of 230 µM.
On the same count and under the same terms, in the case of `N#CC(C#N)=C(N)/C(C#N)=C/c1cc(O)c(O)c(O)c1` [TYRPHOSTIN 51] it was 0.8 µM; in that of `N[C@@H](Cc1ccc(O)c(O)c1)C(=O)O` [LEVODOPA], 900 µM; in that of `N#C/C(=C/c1cc(O)ccc1O)C(=O)O`, 75 µM.
The molecule `N#CC(C#N)=C(N)/C(C#N)=C/c1ccc(O)c([N+](=O)[O-])c1` gave a half-maximal inhibitory concentration (IC50) of 60 µM.
The same measure, in the same setting: in the case of `COc1cc(C=C(C#N)C#N)cc(O)c1O` it was 6 µM; in that of `COc1cc(C=C(C#N)C#N)cc([N+](=O)[O-])c1O`, 160 µM; in that of `N#CC(C#N)Cc1ccc(O)cc1`, 6500 µM.
On the same count and under the same terms, in the case of `O=CN/C=C/c1cc(O)ccc1O` [ERBSTATIN] it was 14 µM; in that of `N#C/C(=C\c1ccc(O)cc1)C(N)=O`, 800 µM.
On the same count and under the same terms, in the case of `N#CC(C#N)=Cc1ccc(NC(=O)CCC(=O)O)cc1` it was 640 µM.
`N#CC(C#N)=Cc1ccc(N2CCOCC2)cc1` gave a half-maximal inhibitory concentration (IC50) above 625 µM.
On the same count and under the same terms, in the case of `N#C/C(=C\c1ccc([N+](=O)[O-])cc1)C(=O)O` it was 1300 µM; in that of `COc1cc(C=C(C#N)C#N)cc(Br)c1O`, 153 µM; in that of `O=C(O)C(=Cc1ccc(O)cc1)C(=O)O`, 1500 µM.
On the same count and under the same terms, in the case of `N#C/C(=C\c1ccccc1)C(=O)O` it was above 2500 µM; in that of `N#CC(C#N)=Cc1ccc(C=O)cc1`, 60 µM.
Same read-out and setting: in the case of `COc1cc(C=C(C#N)C#N)cc(OC)c1` it was above 1250 µM.
In the case of `N#CC(C#N)=Cc1cc(O)c(O)c(O)c1` [TYRPHOSTIN 25], the half-inhibitory concentration (IC50) was determined as 3 µM.
`COc1cc(/C=C(\C#N)C(=O)O)ccc1O` yielded an IC50 of 800 µM.
The same measure, in the same setting: in the case of `N#CC(C#N)=Cc1ccc[nH]1` it was 260 µM.
In turn, `N#CC(C#N)=Cc1cccc(O)c1` showed an IC50 of 375 µM.
`N#CCNC(=O)/C(C#N)=C/c1ccc(O)cc1`: the concentration for half-maximal inhibition (IC50) turned out to be 625 µM.
`N#C/C(=C\c1ccc(O)c(O)c1)C(=O)O` came in with an IC50 of 70 µM.
Still for that read-out and setting: in the case of `COc1ccc(C(O)=C(C#N)C#N)cc1` it was 450 µM.
The same measure, in the same setting: in the case of `COc1ccc(/C=C(\C#N)C(=O)O)cc1` it was 2500 µM; in that of `N#CC(C#N)=Cc1cc(O)cc(O)c1`, 37 µM; in that of `N#CC(C#N)=Cc1cc(O)ccc1[N+](=O)[O-]`, 96 µM.
On the same count and under the same terms, in the case of `COc1ccc(NN=C(C#N)C#N)cc1` it was 600 µM; in that of `N#CC(C#N)=Cc1ccncc1`, 250 µM; in that of `N#C/C(=C\c1ccc(O)cc1)C(=O)O` [alpha-CYANO-4-HYDROXYCINNAMIC ACID], 308 µM.
Molecule `CC(C)(C)c1cc(C=C(C#N)C#N)cc(C(C)(C)C)c1O` [TYRPHOSTIN A9] had an IC50 of 460 µM.
`N#C/C(=C\c1ccc(F)cc1)C(=O)O` registered a half-inhibitory concentration (IC50) of 2500 µM.
Take `N#CC(C#N)=Cc1ccc([N+](=O)[O-])c(O)c1`: half-maximal inhibition (IC50) required 450 µM.
Still for that read-out and setting: in the case of `N#CC(C#N)=Cc1ccc(/C=C/C(=O)O)cc1` it was 450 µM; in that of `N#C/C=C/c1ccc(O)cc1`, 2400 µM; in that of `N#CC(C#N)=CNc1ccc(O)cc1`, 350 µM.
In turn, `N#CC(C#N)=C(N)/C(C#N)=C/c1ccc(O)cc1` displayed an IC50 of 0.125 µM.
On the same count and under the same terms, in the case of `COc1cc(/C=C(\C#N)C(=O)O)cc(OC)c1O` it was 700 µM.
On the same count and under the same terms, in the case of `CCCCc1cc(/C=C(\C#N)C(N)=O)cc(CCCC)c1O` it was 55 µM; in that of `N#CC(C#N)=Cc1ccc(O)cc1`, 560 µM; in that of `CC(=C(C#N)C#N)c1ccc(NC(=O)CCC(=O)O)cc1`, 500 µM.
Same read-out and setting: in the case of `N#CC(C#N)=Cc1ccc(F)cc1` it was above 1250 µM.
`N#CC(C#N)=Cc1ccc(C(=O)O)cc1` gave an IC50 of 430 µM.
As for `N#CC(C#N)=C(N)/C(C#N)=C/c1ccc(O)c(O)c1`, the IC50 was 2.5 µM.
On the same count and under the same terms, in the case of `N#CC(C#N)=C(O)c1cc(O)c(O)c(O)c1` it was 13.5 µM.
The same measure, in the same setting: in the case of `O=C(O)/C=C/c1ccc(O)c(O)c1` [CAFFEIC ACID] it was 1200 µM; in that of `N#CC(C#N)=Cc1ccc(O)c([N+](=O)[O-])c1`, 125 µM.
In the case of `O=C(O)/C=C/c1ccc(O)cc1` [COUMARIC ACID], the IC50 was determined as 3000 µM.
Still for that read-out and setting: in the case of `N#C/C(=C\c1ccc(O)c(O)c1)C(N)=O` it was 10 µM; in that of `N#CC(C#N)=Cc1cc[n+]([O-])cc1`, 1300 µM.
On the same count and under the same terms, in the case of `N#CC(C#N)=C1C(=O)NC(=O)NC1=O` it was 1400 µM.
Same read-out and setting: in the case of `COc1ccc(C=C(C#N)C#N)cc1O` it was above 250 µM; in that of `COc1cc(C=C(C#N)C#N)cc(OC)c1O`, 850 µM; in that of `CC(=C(C#N)C#N)c1ccc(N)cc1`, above 1250 µM.
